One assay has as its target T1, 5-lipoxygenase (Rattus norvegicus, UniProt P12527).
T1 construct: The cell-free homogenate was prepared by sonication of the cells followed by centrifugation at 40,000 xg; endogenous in cells; host or cells: RBL-1 (rat basophilic leukemia) cells, 40,000 xg supernatant of the sonicated homogenate
T1 sequence (P12527 1-673): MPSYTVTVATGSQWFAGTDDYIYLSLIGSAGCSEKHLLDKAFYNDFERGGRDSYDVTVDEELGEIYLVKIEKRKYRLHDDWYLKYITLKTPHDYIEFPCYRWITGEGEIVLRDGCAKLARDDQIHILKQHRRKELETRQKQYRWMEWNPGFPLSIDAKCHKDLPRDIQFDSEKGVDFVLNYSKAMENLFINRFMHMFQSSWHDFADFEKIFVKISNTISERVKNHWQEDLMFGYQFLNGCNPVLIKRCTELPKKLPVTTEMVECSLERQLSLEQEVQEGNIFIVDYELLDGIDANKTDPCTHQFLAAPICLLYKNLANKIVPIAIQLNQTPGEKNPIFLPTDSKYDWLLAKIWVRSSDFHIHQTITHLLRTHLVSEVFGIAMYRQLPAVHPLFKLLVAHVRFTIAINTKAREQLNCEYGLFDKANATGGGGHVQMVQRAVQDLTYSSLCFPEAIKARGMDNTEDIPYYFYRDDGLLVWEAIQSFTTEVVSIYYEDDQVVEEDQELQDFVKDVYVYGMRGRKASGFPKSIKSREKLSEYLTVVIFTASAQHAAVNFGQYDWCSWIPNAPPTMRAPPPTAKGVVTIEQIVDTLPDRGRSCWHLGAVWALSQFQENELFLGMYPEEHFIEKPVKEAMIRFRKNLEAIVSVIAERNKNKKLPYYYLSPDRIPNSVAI
In words: Inhibition of 5-lipoxygenase in a cell-free homogenate of RBL-1 cells (production of lipoxygenase products from 14C-arachidonic acid). The assay is classed as biochemical. As to conditions: 3 μM; rat RBL-1 40,000 xg supernatant. Here is the method: The inhibition of 5-lipoxygenase was tested in a cell-free homogenate by the procedure of Jakschik, B. et al., Biochem.Biophys.Res.Comm. 95, 103 (1980). Basically, rat basophilic leukemia cells (RBL-1 cells) were maintained in culture in a suitable medium, and were collected by centrifugation prior to assay. The cell-free homogenate was prepared by sonication of the cells followed by centrifugation at 40,000 xg. The CaCl2 dependent production of lipoxygenase products from ^14 C-arachidonic acid in the 40,000 xg supernatant was monitored in the presence of buffer (or other vehicle) or drug. Products were isolated by acidification and extraction, followed by thin layer chromatography. Radioactive areas corresponding to authentic lipoxygenase products were quantitated by liquid scintillation counting. Data was reported as the IC50, the concentration causing 50% inhibition of the generation of lipoxygenase products. The results are shown in Table II as the percent inhibition at 3 μM or the amount of compound necessary to cause 50% inhibition.

Assay [1] concerns Arachidonate Induced Bronchospasm. In words: Pulmonary mechanics assay: inhibition of arachidonate induced bronchospasm in anesthetized guinea pigs. The class given is in vivo, guinea pig (male Hartley). As to conditions: Cavia porcellus, guinea pig, % inhibition of control; for inhibition in vivo at 15 mg/kg: dose 15 mg/kg IV; for inhibition in vivo at 50 mg/kg: dose 50 mg/kg ID. Here is the method:
The bronchodilating activity of the compounds was tested in a pulmonary mechanics assay. Basically, male Hartley guinea pigs (~400-500 g) were anesthetized with urethane (2 g/kg, i.p.) and placed in a whole body plethysmograph. Cannulations of a jugular vein and carotid artery were performed for compound administration and monitoring blood presure, respectively. The trachea was cannulated for respiration at a constant volume via a miniature starling pump. A Validyne differential pressure transducer (±20 cm H2 O) sensed transpleural pressure via a 15 gauge needle inserted into the pleural cavity and a sidearm from the tracheal cannula. Tidal volume was sensed by another Validyne differential pressure transducer (±2 cm H2 O) from pressure changes inside the plethysmograph. An on-line Buxco pulmonary mechanics computer calculated air flow, dynamic lung compliance and lung resistance. The values were recorded on a print-out.
The guinea pigs were pretreated with succinyl choline (1.2 mg/kg, i.v.) to arrest spontaneous respiration. A control challenge of arachidonic acid (0.5-1.0 mg/kg, i.v.) was administered, and the animals were then dosed with the test compound by various routes. At least 10 minutes were allowed to expire between arachidonic acid challenges. A second challenge was given and compared to the control response. This comparison was indicative of cyclooxygenase inhibition. Indomethacin (10 mg/kg, i.v.) was administered immediately after the second challenge. A third challenge of a higher dose of arachidonic acid (5-10 mg/kg, i.v.) was given. This response was induced by SRS-A and compared to the responses elicited by a separate control group of animals. Activity was indicative of lipoxygenase inhibition. Propranolol (0.005 mg/kg, i.v.) may be given prior to the third challenge to enhance the response to SRS-A.
Bronchoconstriction induced by arachidonic acid with or without indomethacin was expressed as maximum percent change in dynamic lung compliance (Cdyn) and maximum percent increase in lung resistance (RL). Each guinea pig served as its own control for cyclooxygenase evaluation, while a treated group was compared to a control group for lipoxygenase evaluation. The results are shown in Table II and are expressed as the percent inhibition of control.

The mark [2] stands for this setting: with indomethacin (10 mg/kg, i.v.), read-out: Bronchodilating Activity, % Inhibition of Arachidonate Induced Bronchospasm, with Indomethacin.
Where [3] appears, read: without indomethacin, read-out: Bronchodilating Activity, % Inhibition of Arachidonate Induced Bronchospasm, without Indomethacin.

Among the data in US4820828A, “Cinnamohydroxamic acids” (Ortho Pharmaceutical Corporation, priority 1987, dated 1989) are inhibition and inhibition in vivo values, retold here.

Read-outs that look alike come from different tables or passages of the source.

On 5-lipoxygenase, `COc1cccc(/C=C/C(=O)N(C)O)c1OC` [Example 19, 2,3-Dimethoxy-N--methylcinnamohydroxamic acid] returned an inhibition at 3 µM of 44%. Moreover, the figures for the inhibition in vivo at 15 mg/kg in assay [1] (setting [2]) and in assay [1] (setting [3]) were 70% and 34%, respectively.
Consider `CN(O)C(=O)/C=C/c1ccc(Cl)c(Cl)c1` [Example 16, 3,4-Dichloro-N--methylcinnamohydroxamic acid], for which at 3 µM the inhibition on 5-lipoxygenase was 87%. Besides, the inhibition in vivo at 15 mg/kg in assay [1] (setting [2]) is 86%; in assay [1] (setting [3]), 62%.
Molecule `COc1cccc(/C=C/C(=O)N(C)O)c1` [Example 24, 3-Methoxy-N--methylcinnamohydroxamic acid] returned an inhibition at 3 µM against 5-lipoxygenase of 54%. Moreover, the inhibition in vivo at 50 mg/kg in assay [1] (iv, with indomethacin (10 mg/kg, i.v.), read-out: Bronchodilating Activity, % Inhibition of Arachidonate Induced Bronchospasm, with Indomethacin) worked out at 49%; in assay [1] (setting [3]) it was 0%. The inhibition in vivo at 15 mg/kg turned out to be 66% in assay [1] (setting [2]) and 28% in assay [1] (setting [3]).

In general, inhibition refers to the relative decrease from the control value, in per cent. A high value points to a strong effect.
